From PubChem BioAssay (NCI)
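1) Cells in 96-well plates. 2) Compound, 48 h, 5 concentrations. 3) Linear interpolation between surrounding doses. 4) Unreached endpoint = highest concentration. GI50 is the concentration that inhibits growth by half. TGI denotes the concentration required for complete inhibition of growth.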

Tests used:
Test in all cases: NCI anticancer screen, dose series, 48 h
NCI-H23 lung = test system: NCI-H23 lung
NCI-H460 lung = test system: NCI-H460 lung
NCI-H522 lung = test system: NCI-H522 lung
NCI/ADR-RES ovarian = test system: NCI/ADR-RES ovarian
OVCAR-3 ovarian = test system: OVCAR-3 ovarian
OVCAR-4 ovarian = test system: OVCAR-4 ovarian
OVCAR-5 ovarian = test system: OVCAR-5 ovarian
OVCAR-8 ovarian = test system: OVCAR-8 ovarian
PC-3 prostate = test system: PC-3 prostate
RPMI-8226 leukemia = test system: RPMI-8226 leukemia
RXF 393 renal = test system: RXF 393 renal
SF-268 CNS = test system: SF-268 CNS
SF-295 CNS = test system: SF-295 CNS
SF-539 CNS = test system: SF-539 CNS
SK-MEL-2 melanoma = test system: SK-MEL-2 melanoma
SK-MEL-28 melanoma = test system: SK-MEL-28 melanoma
SK-MEL-5 melanoma = test system: SK-MEL-5 melanoma
SK-OV-3 ovarian = test system: SK-OV-3 ovarian
SN12C renal = test system: SN12C renal
SNB-19 CNS = test system: SNB-19 CNS
SNB-75 CNS = test system: SNB-75 CNS
SR leukemia = test system: SR leukemia
SW-620 colon = test system: SW-620 colon
T-47D breast = test system: T-47D breast
TK-10 renal = test system: TK-10 renal
U251 CNS = test system: U251 CNS
UACC-257 melanoma = test system: UACC-257 melanoma
UACC-62 melanoma = test system: UACC-62 melanoma
UO-31 renal = test system: UO-31 renal

Work on `C/C(=N/NC(N)=S)c1ccc(Nc2nc(SCC(C)C)nc(-c3ccc(F)cc3)c2C#N)cc1` yielded a GI50 (NCI-H23 lung) of 1.72 µM, a TGI (NCI-H23 lung) of 12 µM and a GI50 (NCI-H460 lung) of 0.414 µM. For the same molecule, the TGI (NCI-H460 lung) was 10.3 µM, the GI50 (NCI-H522 lung) was 2.59 µM and the TGI (NCI-H522 lung) was 13.1 µM. For the same molecule, the GI50 (NCI/ADR-RES ovarian) was 1.89 µM, the TGI (NCI/ADR-RES ovarian) was 19.1 µM and the GI50 (OVCAR-3 ovarian) was 0.685 µM. It also gave a TGI (OVCAR-3 ovarian) of 4.95 µM, a GI50 (OVCAR-4 ovarian) of 0.329 µM and a TGI (OVCAR-4 ovarian) of 2.23 µM. The GI50 (OVCAR-5 ovarian) was 6.94 µM, the TGI (OVCAR-5 ovarian) was 47.5 µM and the GI50 (OVCAR-8 ovarian) was 3.22 µM. For the same molecule, the TGI (OVCAR-8 ovarian) was 26.4 µM, the GI50 (PC-3 prostate) was 0.59 µM and the TGI (PC-3 prostate) was 5.52 µM. The GI50 (RPMI-8226 leukemia) was 3.26 µM, the TGI (RPMI-8226 leukemia) was 80.3 µM and the GI50 (RXF 393 renal) was 1.95 µM. It also gave a TGI (RXF 393 renal) of 7.16 µM, a GI50 (SF-268 CNS) of 10.9 µM and a TGI (SF-268 CNS) of 33.1 µM. It also gave a GI50 (SF-295 CNS) of 0.598 µM, a TGI (SF-295 CNS) of 2.69 µM and a GI50 (SF-539 CNS) of 2.01 µM. For the same molecule, the TGI (SF-539 CNS) was 10.4 µM, the GI50 (SK-MEL-2 melanoma) was 5.09 µM and the TGI (SK-MEL-2 melanoma) was 19 µM. For the same molecule, the GI50 (SK-MEL-28 melanoma) was 2.76 µM, the TGI (SK-MEL-28 melanoma) was 13.4 µM and the GI50 (SK-MEL-5 melanoma) was 2.74 µM. For the same molecule, the TGI (SK-MEL-5 melanoma) was 15.6 µM, the GI50 (SK-OV-3 ovarian) was 3.1 µM and the TGI (SK-OV-3 ovarian) was 13.7 µM. For the same molecule, the GI50 (SN12C renal) was 0.717 µM, the TGI (SN12C renal) was 14.1 µM and the GI50 (SNB-19 CNS) was 9.08 µM. It also gave a TGI (SNB-19 CNS) of 22.4 µM, a GI50 (SNB-75 CNS) of 0.418 µM and a TGI (SNB-75 CNS) of 3.95 µM. For the same molecule, the GI50 (SR leukemia) was 0.509 µM, the TGI (SR leukemia) was 18.9 µM and the GI50 (SW-620 colon) was 0.62 µM. For the same molecule, the TGI (SW-620 colon) was over 100 µM, the GI50 (T-47D breast) was 2.11 µM and the TGI (T-47D breast) was 29.8 µM. For the same molecule, the GI50 (TK-10 renal) was 3.56 µM, the TGI (TK-10 renal) was 18.9 µM and the GI50 (U251 CNS) was 0.77 µM. The TGI (U251 CNS) was 11 µM, the GI50 (UACC-257 melanoma) was 4.56 µM and the TGI (UACC-257 melanoma) was 30.1 µM. The GI50 (UACC-62 melanoma) was 1.66 µM, the TGI (UACC-62 melanoma) was 10.5 µM and the GI50 (UO-31 renal) was 2.75 µM. For the same molecule, the TGI (UO-31 renal) was 15.4 µM.
